{"source": "paper PMC9090415", "about": "“Discovery of small molecule inhibitors of Plasmodium falciparum apicoplast DNA polymerase” (Journal of Enzyme Inhibition and Medicinal Chemistry, 2022)", "molecular_target": "T1, bacteriophage T4 DNA polymerase (Enterobacteria phage T4, UniProt P04415)", "T1 construct": "made in house", "T1 sequence (P04415 1-898)": "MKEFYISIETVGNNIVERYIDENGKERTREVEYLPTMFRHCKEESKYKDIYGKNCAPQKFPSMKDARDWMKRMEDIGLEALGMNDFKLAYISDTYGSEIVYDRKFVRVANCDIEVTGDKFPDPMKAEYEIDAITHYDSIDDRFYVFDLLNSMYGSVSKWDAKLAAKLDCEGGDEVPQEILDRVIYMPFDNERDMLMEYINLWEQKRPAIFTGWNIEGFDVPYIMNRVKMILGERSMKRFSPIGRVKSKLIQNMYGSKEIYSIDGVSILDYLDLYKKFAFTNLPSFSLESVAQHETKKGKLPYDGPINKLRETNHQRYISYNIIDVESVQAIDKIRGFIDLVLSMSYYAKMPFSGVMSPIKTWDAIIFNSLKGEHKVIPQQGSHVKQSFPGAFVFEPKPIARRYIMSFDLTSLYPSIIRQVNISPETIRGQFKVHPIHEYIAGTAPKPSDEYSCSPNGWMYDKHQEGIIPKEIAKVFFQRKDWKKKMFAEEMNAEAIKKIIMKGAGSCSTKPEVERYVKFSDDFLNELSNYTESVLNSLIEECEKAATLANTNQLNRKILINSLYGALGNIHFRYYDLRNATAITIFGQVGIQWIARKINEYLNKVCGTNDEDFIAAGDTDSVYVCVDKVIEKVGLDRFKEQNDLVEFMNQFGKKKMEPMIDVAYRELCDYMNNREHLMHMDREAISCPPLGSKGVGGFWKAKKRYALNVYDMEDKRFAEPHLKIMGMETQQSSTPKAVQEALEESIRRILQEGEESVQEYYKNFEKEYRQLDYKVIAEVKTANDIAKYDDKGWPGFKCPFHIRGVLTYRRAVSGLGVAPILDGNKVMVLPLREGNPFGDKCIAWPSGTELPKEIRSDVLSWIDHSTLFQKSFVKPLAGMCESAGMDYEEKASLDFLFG", "assay": "Counter-screen against bacteriophage T4 DNA polymerase", "format": "biochemical", "conditions": "for % inhibition T4 10' 2.5 / % inhibition T4 10' 5 / % inhibition T4 10' 10 / % inhibition T4 10' 20 / % inhibition T4 10' 40 / % inhibition T4 10' 80: read at 10'", "outline": "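Purified T4 DNA polymerase, a B-family enzyme, served as the counter-screen enzyme. Compounds were tested in dose-response format and IC50 values were derived.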"}
{"compound": "Cc1ccc(N2CCC(NC(=O)Cc3cccs3)C2=O)cc1C", "note": "(stereo not drawn) [Molecule 57, O=C(NC1CCN(C1=O)c1ccc(c(c1)C)C)Cc1cccs1]", "values": [{"measurement": "% inhibition T4 10' 2.5", "setting": "DRC-1, concentration 2.5", "result": -2.9635, "unit": "%"}, {"measurement": "% inhibition T4 10' 5", "setting": "DRC-1, concentration 5", "result": 6.066, "unit": "%"}, {"measurement": "% inhibition T4 10' 10", "setting": "DRC-1, concentration 10", "result": 19.8361, "unit": "%"}, {"measurement": "% inhibition T4 10' 20", "setting": "DRC-1, concentration 20", "result": 23.1597, "unit": "%"}, {"measurement": "% inhibition T4 10' 40", "setting": "DRC-1, concentration 40", "result": 29.7521, "unit": "%"}, {"measurement": "% inhibition T4 10' 80", "setting": "DRC-1, concentration 80", "result": 29.7097, "unit": "%"}, {"measurement": "% inhibition T4 70' 2.5", "setting": "DRC-1, read at 70', concentration 2.5", "result": -3.783, "unit": "%"}, {"measurement": "% inhibition T4 70' 5", "setting": "DRC-1, read at 70', concentration 5", "result": 0.9049, "unit": "%"}, {"measurement": "% inhibition T4 70' 10", "setting": "DRC-1, read at 70', concentration 10", "result": 15.0423, "unit": "%"}, {"measurement": "% inhibition T4 70' 20", "setting": "DRC-1, read at 70', concentration 20", "result": 17.1422, "unit": "%"}, {"measurement": "% inhibition T4 70' 40", "setting": "DRC-1, read at 70', concentration 40", "result": 24.1448, "unit": "%"}, {"measurement": "% inhibition T4 70' 80", "setting": "DRC-1, read at 70', concentration 80", "result": 21.6253, "unit": "%"}, {"measurement": "% inhibition T4 130' 2.5", "setting": "DRC-1, read at 130', concentration 2.5", "result": -5.326, "unit": "%"}, {"measurement": "% inhibition T4 130' 5", "setting": "DRC-1, read at 130', concentration 5", "result": -0.359, "unit": "%"}, {"measurement": "% inhibition T4 130' 10", "setting": "DRC-1, read at 130', concentration 10", "result": 12.5508, "unit": "%"}, {"measurement": "% inhibition T4 130' 20", "setting": "DRC-1, read at 130', concentration 20", "result": 13.7416, "unit": "%"}, {"measurement": "% inhibition T4 130' 40", "setting": "DRC-1, read at 130', concentration 40", "result": 21.2189, "unit": "%"}, {"measurement": "% inhibition T4 130' 80", "setting": "DRC-1, read at 130', concentration 80", "result": 19.4508, "unit": "%"}, {"measurement": "% inhibition T4 10' 2.5", "setting": "DRC-2, concentration 2.5", "result": 14, "unit": "%"}, {"measurement": "% inhibition T4 10' 5", "setting": "DRC-2, concentration 5", "result": 12, "unit": "%"}, {"measurement": "% inhibition T4 10' 10", "setting": "DRC-2, concentration 10", "result": 20, "unit": "%"}, {"measurement": "% inhibition T4 10' 20", "setting": "DRC-2, concentration 20", "result": 23, "unit": "%"}, {"measurement": "% inhibition T4 10' 40", "setting": "DRC-2, concentration 40", "result": 25, "unit": "%"}, {"measurement": "% inhibition T4 10' 80", "setting": "DRC-2, concentration 80", "result": 26, "unit": "%"}, {"measurement": "% inhibition T4 40' 2.5", "setting": "DRC-2, read at 40', concentration 2.5", "result": 13, "unit": "%"}, {"measurement": "% inhibition T4 40' 5", "setting": "DRC-2, read at 40', concentration 5", "result": 12, "unit": "%"}, {"measurement": "% inhibition T4 40' 10", "setting": "DRC-2, read at 40', concentration 10", "result": 20, "unit": "%"}, {"measurement": "% inhibition T4 40' 20", "setting": "DRC-2, read at 40', concentration 20", "result": 27, "unit": "%"}, {"measurement": "% inhibition T4 40' 40", "setting": "DRC-2, read at 40', concentration 40", "result": 30, "unit": "%"}, {"measurement": "% inhibition T4 40' 80", "setting": "DRC-2, read at 40', concentration 80", "result": 35, "unit": "%"}, {"measurement": "% inhibition T4 90' 2.5", "setting": "DRC-2, read at 90', concentration 2.5", "result": 13, "unit": "%"}, {"measurement": "% inhibition T4 90' 5", "setting": "DRC-2, read at 90', concentration 5", "result": 11, "unit": "%"}, {"measurement": "% inhibition T4 90' 10", "setting": "DRC-2, read at 90', concentration 10", "result": 20, "unit": "%"}, {"measurement": "% inhibition T4 90' 20", "setting": "DRC-2, read at 90', concentration 20", "result": 26, "unit": "%"}, {"measurement": "% inhibition T4 90' 40", "setting": "DRC-2, read at 90', concentration 40", "result": 29, "unit": "%"}, {"measurement": "% inhibition T4 90' 80", "setting": "DRC-2, read at 90', concentration 80", "result": 37, "unit": "%"}, {"measurement": "% inhibition T4 180' 2.5", "setting": "DRC-2, read at 180', concentration 2.5", "result": 11, "unit": "%"}, {"measurement": "% inhibition T4 180' 5", "setting": "DRC-2, read at 180', concentration 5", "result": 10, "unit": "%"}, {"measurement": "% inhibition T4 180' 10", "setting": "DRC-2, read at 180', concentration 10", "result": 18, "unit": "%"}, {"measurement": "% inhibition T4 180' 20", "setting": "DRC-2, read at 180', concentration 20", "result": 25, "unit": "%"}, {"measurement": "% inhibition T4 180' 40", "setting": "DRC-2, read at 180', concentration 40", "result": 28, "unit": "%"}, {"measurement": "% inhibition T4 180' 80", "setting": "DRC-2, read at 180', concentration 80", "result": 37, "unit": "%"}]}
